Test results: patent US20030181354A1, “Method for central nervous system targeting through the ocular route of drug delivery” (priority 2002, published 2003)

Columns and labels:
[1] = Experimental: A study was conducted to examine for the first time the neuro-ocular tissue distribution of brimonidine following one single 50 μl instillation of 3H-Alphagan aqueous solution (0.2%) into the albino rabbit eye. Both eyes and the brain were dissected. Both side specimens of aqueous humor, cornea, iris, lens, vitreous, conjunctiva, sclera, ciliary body, choroid, retina, optic nerve, optic tract, olfactory bulb, as well as corpus callosum and blood samples were collected. The corpus callosum was chosen as an indicator of general availability of the drug in the brain. The olfactory bulbs were included to rule out ocular-brain drug delivery through the nasal cavity.
In the method employed, following single instillation of 50 μl of [3H]-radio labeled brimonidine tartrate in the cul-de-sac of the right eye, male albino rabbits (2-2.5 kg) were sacrificed at the selected time point (15, 30 min., 1, 2. 3, and 4 h). Both eyes and the brain were dissected. Both sides specimens of aqueous humor, cornea, iris, lens, vitreous, conjunctiva, sclera, ciliary body, choroid, retina, optic nerve, optic tract, as well as chiasm, cerebral and blood samples were weighted before combustion in Packard sample Oxidizer (model 307), and radioactive [3H] brimonidine liquid scintillation counting.

[2] = reported; cited from earlier work
memory = conditions: very small doses, monkeys; cited from earlier work
[3] = test system: alpha 2-adrenoceptor regulated serotonin release; conditions: rat hippocampus in vivo; cited from earlier work
[4] = test system: migraine related symptoms; conditions: 0.2% topical to the eye, as additional antiglaucoma agent
From the text: A patient with a history of migraine, and both eyes primary open angle glaucoma.
A patient with a history of migraine, and right eye primary open angle glaucoma.

Brc1c(NC2=NCCN2)ccc2nccnc12 [brimonidine, 5-bromo-6-(2-imidozolin-2-ylamino) quinoxaline]
contralateral eye choroid peak higher than in the blood ([1]; 15 min, P<0.001): 99.5 folds | contralateral eye ciliary body peak higher than in the blood ([1]; 15 min, P<0.001): 76.5 folds | corpus callosum AUC higher than in the left optic nerve ([1]; P<0.01): 118% | corpus callosum AUC higher than in the right optic nerve ([1]; P<0.01): 177% | corpus callosum AUC higher than in the right optic tract ([1]; P<0.05): 123% | corpus callosum AUC higher than in the left optic tract ([1]; P<0.10): 111% | corpus callosum 3H-brimonidine concentration ([1]; at 5 min): 993.79 ± 48.43 ng/g | corpus callosum concentration higher than in the right optic nerve ([1]; at 5 min, P<0.001): 763% | brimonidine concentration in the corpus callosum higher than in the blood ([1]; at 5 minutes, P<0.001): 148 folds | drug concentration detected in the blood samples ([1]; blood, after ocular instillation): extremely low | time of brimonidine delivery to the ciliary body of the contralateral eye ([1]; contralateral eye): < 5 min | ciliary body brimonidine level ([1]; contralateral eye, 5 minutes post drug application): 444.28 ± 86.38 ng/g | ciliary body brimonidine level, peak ([1]; contralateral eye, 15 minutes): 619.74 ± 36.35 ng/g | ciliary body AUC higher than in the conjunctiva ([1]; contralateral eye, P<0.001): 340% | ciliary body AUC higher than in the retina ([1]; contralateral eye, P<0.001): 322% | choroid AUC higher than in the conjunctiva ([1]; contralateral eye, P<0.01): 290% | choroid AUC higher than in the retina ([1]; contralateral eye, P<0.01): 275% | drug levels observed in the olfactory bulbs ([1]; olfactory bulbs): low | Vitreal AUC as % of aqueous humor AUC ([1]; treated eye, P<0.01): 8.85% | Choroidal brimonidine AUC higher than retinal AUC ([1]; treated eye, p<0.001): 196% | Retinal AUC higher than vitreous AUC ([1]; treated eye, p<0.001): 636% | Vitreal AUC as % of retinal AUC ([1]; treated eye, p<0.001): 15.7% | brimonidine AUC corpus callosum higher than blood ([1]; whole study period, P<0.001): 40 folds | systemic half life [2]: 3 h | effect on memory (memory): reliable but modest improvement of memory | effect on release of serotonin (5-HT) [3]: inhibitory action

tartrate of 5-bromo-6-(2-imidozolin-2-ylamino) quinoxaline [brimonidine tartrate]
patient-reported effect on migraine related symptoms [4]: substantial relief of migraine related symptoms
